System: schizophrenia
Experimental: At the initiation of hydrogen gas inhalation, a drug therapy with Abilify (intramuscular injection, 400 mg/month, once) and Lexotan tablets (oral administration, 6 mg/day, 3 times per day) was carried out.
Conditions of hydrogen gas inhalation were as follows:
For 40 days after initiation of inhalation: once per day, 70 mL/minute;
The subsequent 1 month: 2 hours per day, 70 mL/minute, hydrogen gas concentration: 3.0 to 4.0%;
The subsequent 4 months: 2 hours per day, 140 mL/minute, hydrogen gas concentration: 6.0 to 7.0%;
The subsequent 4 months: 6 hours per day, 280 mL/minute, hydrogen gas concentration: 6.0 to 7.0% (two hydrogen inhalers were used).
Thereafter, the patient was allowed to inhale hydrogen gas (6.0 to 7.0%, 280 mL/minute) for 6 hours/day, continuously for 9 months.

[1] = about 10 months after initiation of hydrogen inhalation

Compound: [HH] [hydrogen gas]
- time for which injection of a medicine (once a month) was continued after initiation of hydrogen inhalation, thereafter stopped (Abilify intramuscular injection, 400 mg/month): 8 months
- time after initiation of hydrogen inhalation at which administration of the oral medicine was terminated (Lexotan tablets, oral, 6 mg/day, hydrogen once per day, 70 mL/minute): Ten
- disease-state in the period during which hydrogen inhalation was continued [1]: stably maintained
- phase of the disease [1]: recovery phase
- time after initiation of inhalation when use of the sleeping pill was stopped (brotizolam tablet, 0.25 mg/day): About 6 months
- time after initiation of inhalation when the patient started to fall asleep without taking the sleeping pill (brotizolam tablet, 0.25 mg/day, every day at initiation): about 2 months
- value of the patient in the examination (examination in January of 2019): the same as in a healthy person
- disease state according to medical examination during an office visit (further 9 months of hydrogen gas 6.0 to 7.0%, 280 mL/minute, 6 hours/day): stable
- recurrence after inhalation of hydrogen gas was stopped (inhalation stopped in March of 2019): no recurrence occurred
- consecutive symptom, hallucination (patient, schizophrenia onset 13 years ago, on Abilify and Lexotan, after initiation of hydrogen inhalation, 3.0 to 6.0%): disappeared
